Converted amounts (≈) assume the structure as drawn. Read-outs that look alike come from different tables or passages of the source.
Experiments:
[1] = biological target: T1, DOXP reductoisomerase of Escherichia coli (UniProt P56139); assay: inhibition of recombinant DOXP reductoisomerase (NADPH oxidation); assay type: biochemical; details: 1 mM DOXP, 0,3 mM NADPH, pH 7,5; read-out: IC50(nM) of DOXP reductoisomerase from Helicobacter pilori
T1 sequence (P56139 1-368): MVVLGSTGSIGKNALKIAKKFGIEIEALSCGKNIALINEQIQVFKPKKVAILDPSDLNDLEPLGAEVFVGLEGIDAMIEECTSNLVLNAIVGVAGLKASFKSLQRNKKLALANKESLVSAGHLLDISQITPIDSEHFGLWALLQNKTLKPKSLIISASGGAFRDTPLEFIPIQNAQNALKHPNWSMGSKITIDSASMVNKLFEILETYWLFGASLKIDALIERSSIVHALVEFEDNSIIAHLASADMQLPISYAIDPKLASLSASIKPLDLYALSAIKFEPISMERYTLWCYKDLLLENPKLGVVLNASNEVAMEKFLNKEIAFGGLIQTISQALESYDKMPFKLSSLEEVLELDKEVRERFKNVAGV

[2] = test system: Plasmodium falciparum; assay: antimalaria activity on in vitro cultures, [3H]-hypoxanthine incorporation; assay type: cell-based; details: 72 h, inhibition of [3H]-hypoxanthine incorporation, 48 + 24 hours, read-out: IC50(nM) of malaria culture (Plasmodium falciparum)
Method: The antimalaria activity of the compounds listed on page 9 was determined on in vitro cultures of the malaria pathogen Plasmodium falciparum. The depressions of a 96-well microtitre plate were charged with in each case 200 μl of an asynchroneous Plasmodium falciparum culture at a parasitaemia of 0,4% and haematokrit of 2%. A serial dilution series of the compounds in triple steps between concentrations of 100 to 0,14 μmol 1^−1 was then prepared. The plates were incubated at 37° C., 3% CO2 and 5% O2 over a period of 48 hours. 30 μl medium supplemented with 27 μCi ml^−1 [^3H]-hypoxanthine were then added to each well. After incubation for 24 hours the parasites were harvested by filtration on a glass fibre filter and the radioactivity which had been incorporated was measured. The inhibition of the growth of parasites was measured as the percentage inhibition of the incorporation of tritium. Inhibition of the growth of the parasites has been determined as percentage inhibition of incorporation of tritium based on a comparison without the substance. The half-maximum inhibitory concentration (IC50) of the substance was determined by extrapolation of the values.

[3] = test system: Pseudomonas aeruginosa; assay: antibacterial activity, minimum inhibition concentration in liquid culture; assay type: cell-based; details: read-out: MIC(nM) of bacteria culture (Pseudomonas aeruginosa)
Method: A dilution series comprising the concentrations 500, 100, 50, 10 and 0 μmol 1^−1 of the individual compounds in LB medium is introduced into 5 culture microtubes in a volume of 0,5 ml. The tubes were inoculated with 10 μl of an overnight culture of E. coli K12 and shaken overnight at 37° C. The growth of the bacteria was assessed on the basis of the turbidity of the medium. The minimum concentration causing inhibition of bacterial growth was determined (minimum inhibition concentration MIC)
The antibacterial activity of P. aeruginosa was determined in the same manner.

[4] = test system: Echinochloa; assay: herbicidal activity, Hydro Vorauflauf; assay type: in vivo; details: 4000 Gramm/Hektar
Method: (§1) The determination of herbicidal activity is performed according to standard procedure. Again the compounds listed on page 9 are tested.

[5] = test system: Lepidium; assay: herbicidal activity, Hydro Vorauflauf; assay type: in vivo; details: 4000 Gramm/Hektar
Method: as §1

[6] = test system: Reis; assay: herbicidal activity, Hydro Vorauflauf; assay type: in vivo; details: 4000 Gramm/Hektar
Method: as §1

[7] = test system: Solanum; assay: herbicidal activity, Hydro Vorauflauf; assay type: in vivo; details: 4000 Gramm/Hektar
Method: as §1

[8] = test system: Abutilon theophrasti; assay: herbicidal activity, Erde Vorauflauf; assay type: in vivo; details: 2000 Gramm/Hektar
Method: as §1

[9] = test system: Alopecurus myosuroides; assay: herbicidal activity, Erde Vorauflauf; assay type: in vivo; details: 2000 Gramm/Hektar
Method: as §1

[10] = test system: Amaranthus retroflexus; assay: herbicidal activity, Erde Vorauflauf; assay type: in vivo; details: 2000 Gramm/Hektar
Method: as §1

[11] = test system: Avena fatua; assay: herbicidal activity, Erde Vorauflauf; assay type: in vivo; details: 2000 Gramm/Hektar
Method: as §1

[12] = test system: Beta vulgaris; assay: herbicidal activity, Erde Vorauflauf; assay type: in vivo; details: 2000 Gramm/Hektar
Method: as §1

[13] = test system: Cyperus esculentus; assay: herbicidal activity, Erde Vorauflauf; assay type: in vivo; details: 2000 Gramm/Hektar
Method: as §1

[14] = test system: Galium aperine; assay: herbicidal activity, Erde Vorauflauf; assay type: in vivo; details: 2000 Gramm/Hektar
Method: as §1

[15] = test system: Setaria viridis; assay: herbicidal activity, Erde Vorauflauf; assay type: in vivo; details: 2000 Gramm/Hektar
Method: as §1

[16] = test system: Sinapis arvensis; assay: herbicidal activity, Erde Vorauflauf; assay type: in vivo; details: Mutarda arvensis; 2000 Gramm/Hektar
Method: as §1

[17] = test system: Xanthium strumarium; assay: herbicidal activity, Erde Vorauflauf; assay type: in vivo; details: 2000 Gramm/Hektar
Method: as §1

[18] = test system: Zea mays; assay: herbicidal activity, Erde Vorauflauf; assay type: in vivo; details: 2000 Gramm/Hektar
Method: as §1

[19] = test system: Abutilon theophrasti; assay: herbicidal activity, Erde Nachauflauf; assay type: in vivo; details: 2000 Gramm/Hektar
Method: as §1

[20] = test system: Alopecurus myosuroides; assay: herbicidal activity, Erde Nachauflauf; assay type: in vivo; details: 2000 Gramm/Hektar
Method: as §1

[21] = test system: Amaranthus retroflexus; assay: herbicidal activity, Erde Nachauflauf; assay type: in vivo; details: 2000 Gramm/Hektar
Method: as §1

[22] = test system: Avena fatua; assay: herbicidal activity, Erde Nachauflauf; assay type: in vivo; details: 2000 Gramm/Hektar
Method: as §1

[23] = test system: Beta vulgaris; assay: herbicidal activity, Erde Nachauflauf; assay type: in vivo; details: 2000 Gramm/Hektar
Method: as §1

[24] = test system: Cyperus esculentus; assay: herbicidal activity, Erde Nachauflauf; assay type: in vivo; details: 2000 Gramm/Hektar
Method: as §1

[25] = test system: Galium aperine; assay: herbicidal activity, Erde Nachauflauf; assay type: in vivo; details: 2000 Gramm/Hektar
Method: as §1

[26] = test system: Setaria viridis; assay: herbicidal activity, Erde Nachauflauf; assay type: in vivo; details: 2000 Gramm/Hektar
Method: as §1

[27] = test system: Sinapis arvensis; assay: herbicidal activity, Erde Nachauflauf; assay type: in vivo; details: Mutarda arvensis; 2000 Gramm/Hektar
Method: as §1

[28] = test system: Xanthium strumarium; assay: herbicidal activity, Erde Nachauflauf; assay type: in vivo; details: 2000 Gramm/Hektar
Method: as §1

[29] = test system: Zea mays; assay: herbicidal activity, Erde Nachauflauf; assay type: in vivo; details: 2000 Gramm/Hektar
Method: as §1

Compound	IC50 [1] [nM]	IC50 [2] [nM]	pest or weed control at 4000 g/ha [4] [%]	pest or weed control at 4000 g/ha [5] [%]	pest or weed control at 4000 g/ha [6] [%]	pest or weed control at 4000 g/ha [7] [%]	pest or weed control at 2000 g/ha [8] [%]	pest or weed control at 2000 g/ha [9] [%]	pest or weed control at 2000 g/ha [10] [%]	pest or weed control at 2000 g/ha [11] [%]	plant injury at 2000 g/ha [12] [%]	pest or weed control at 2000 g/ha [13] [%]	pest or weed control at 2000 g/ha [14] [%]	pest or weed control at 2000 g/ha [15] [%]	pest or weed control at 2000 g/ha [16] [%]	pest or weed control at 2000 g/ha [17] [%]	plant injury at 2000 g/ha [18] [%]	pest or weed control at 2000 g/ha [19] [%]	pest or weed control at 2000 g/ha [20] [%]	pest or weed control at 2000 g/ha [21] [%]	other results
CP(=O)(O)CCCN1OCCCC1=O [Compound 4]	78	9200	70	30	30	30	0	0	0	60	60	0	0	0	70	0	30	50	70	40	MIC [3]: 7000 nM (≈ 1.55 µg/mL); pest or weed control at 2000 g/ha [22]: 40%; plant injury at 2000 g/ha [23]: 50%; pest or weed control at 2000 g/ha [24]: 0%; pest or weed control at 2000 g/ha [25]: 70%; pest or weed control at 2000 g/ha [26]: 90%; pest or weed control at 2000 g/ha [27]: 60%; pest or weed control at 2000 g/ha [28]: 90%; plant injury at 2000 g/ha [29]: 70%
CC1CON(CCCP(=O)(O)O)C1=O (stereo not drawn) [Compound 5]	100	1200	60	40	40	0	0	60	0	0	30	0	0	0	50	0	0	40	80	30	MIC [3]: 2200 nM (≈ 0.491 µg/mL); pest or weed control at 2000 g/ha [22]: 40%; plant injury at 2000 g/ha [23]: 40%; pest or weed control at 2000 g/ha [24]: 0%; pest or weed control at 2000 g/ha [25]: 70%; pest or weed control at 2000 g/ha [26]: 95%; pest or weed control at 2000 g/ha [27]: 90%; pest or weed control at 2000 g/ha [28]: 60%; plant injury at 2000 g/ha [29]: 80%
CN(C)CCCN1OCCCC1=O [Compound 6]	130	1600	50	30	40	0	0	70	0	0	60	0	0	0	30	0	0	60	40	70	MIC ([3]; LB medium, overnight at 37° C., turbidity): 2500 nM (≈ 0.466 µg/mL); pest or weed control at 2000 g/ha [22]: 60%; plant injury at 2000 g/ha [23]: 40%; pest or weed control at 2000 g/ha [24]: 0%; pest or weed control at 2000 g/ha [25]: 80%; pest or weed control at 2000 g/ha [26]: 70%; pest or weed control at 2000 g/ha [27]: 60%; pest or weed control at 2000 g/ha [28]: 60%; plant injury at 2000 g/ha [29]: 70%

Reference: patent US6638957B1, “Use of compounds with a nitrogen-oxygen heterocycle” (Jomaa Pharmaka GmbH, priority 1999, dated 2003)
